# How the values were obtained:
# Type in all cases: in vivo
# rabbit DED model [1] = assay: Corneal fluorescein staining (CFS) score, rabbit DED model; conditions: for dynamic slope of the CFS score change: from Day 1 to Day 10
# Procedure: (§1) The rabbit DED model was induced by locally administrating 0.1% benzalkoniumchloride (BAC) drops (Sigma, St. Louis, MO, USA) twice a day (8 a.m. and 4 p.m.). Before the BAC treatment, the control group (baseline, naive) underwent standard dry eye clinical tests such as the Schirmer tear test (STT), TBUT, and corneal staining score (CSS) test. After the BAC treatment, the induction of dry eye syndrome was confirmed, and the test substance was administered for 10 days while maintaining the induction of dry eye syndrome. […] The test substance was locally applied bis in die (BID) to both eyes.
# The subjects were evaluated by corneal staining, and the abnormal findings of the eyelids, cornea, and conjunctiva were recorded. After dropping 1 μL of the 1% fluorescent dye solution and washing with saline solution, and the cornea was observed under a slit-lamp microscope and scored to evaluate the degree of epithelial damage (degree of fluorescent staining).
# [2] = tested on: inflammatory cells infiltrated into the stromal layer; assay: Immune cell counts by H&E staining, EDE rabbit model; conditions: 10 days after the treatment
# From the text: The extracted eyes were washed with phosphate-buffered saline (PBS), fixed in the modified Davidson's solution, and embedded in paraffin (Histocore Arcadia, Leica, Wetzlar, Germany). Afterwards, paraffin blocks were sliced into sections of a ˜6 μm thickness, mounted on microscope slides (HistoCore AUTOCUT, Leica, Germany), air dried, and stained with hematoxylin-eosin. The stained tissue slides were imaged, and data were obtained using an optical microscope/digital slide scanner (Axio Scan.Z1, Zeiss, Oberkochen, Germany). Image measurement was performed using ZEN (Zeiss, Germany) and ImageJ (NIH, Bethesda, […], USA) software programs.
# The DED inflammatory pathway also includes the infiltration of differentiated (antigen-specific) T cells into the cornea, conjunctiva, and lacrimal gland. To evaluate the anti-inflammatory effect of (PEG)-BHD1028 in the EDE rabbit model, the number of inflammatory cells infiltrated into the stromal layer was measured by H&E staining 10 days after the treatment.
# [3] = tested on: mouse experimental dry eye (EDE) model; assay: Tear volume, phenol red thread test, EDE mouse model
# Procedure: To confirm the pharmacological effect and appropriate dosage, a pilot study was first conducted with the mice. In addition, a rabbit DED (Dry Eye Disease) model with a large exposed facial area was evaluated in comparison with a mouse model. In the mouse experimental dry eye (EDE) model, scopolamine hydrobromide (Sigma-Aldrich. St. Louis, MO, USA) was subcutaneously injected three times a day (9 a.m., 1:30 p.m., 6 p.m.) in a room exposed to ventilation with an ambient humidity of less than 40% at 25±2° C. to induce DED.
# The mice were randomly divided into five groups: (1) EDE (experimental dry eye) control mice without eye drops administration, (2) EDE mice treated with a vehicle (phosphate-buffered saline), (3) EDE mice treated with 0.001% (PEG)-BHD1028 (4) EDE mice treated with 0.01% (PEG)-BHD1028, and (5) EDE mice treated with 0.1% (PEG)-BHD1028. All the treatment groups received 2 μL of eye drops three times a day.
# The tear secretion was measured for 20 seconds by contacting a cotton thread containing phenol red (Zone-Quick™; Oasis Medical, Inc., Glendora, CA, USA) to the conjunctival sac on the lateral canthus of the mouse eye. After measuring the length using a Nikon SMZ1500 microscope, the length substituted to the prescribed formula, and the value was converted to volume. The tear production of the rabbits was measured by a modified Schirmer tear test using Whatman 41 filter paper strips (Tianjin Jingming New Technology Development Co., Ltd., Tianjin, China) on Day 0, Day 5, and Day 10. Eye examination of the rabbits was performed under anesthesia. The anesthesia was performed under sedation by performing intramuscular injection of xylazine (3 mg/kg, Rompun®; Bayer Korea, Korea) and intramuscular injection of 10 mg/kgtiletamine/zolazepam (Zoletil®, Virbac Laboratories, Carros, France). After adding 1 drop of proparacaine HCl 0.5% (Alcaine®, Alcon Korea Ltd., Seoul, Korea), excess tears and eye drops were removed with Weck-cel® […]. The wet length (mm) of the paper strip was read after 5 minutes.
# The tear volume of the mice was measured using the Phenol Red Thread (PRT) test on Day 5 and Day 10 after the treatment.
# rabbit DED model [4] = assay: Tear film break-up time (TBUT), rabbit DED model
# From the text: as §1, with “test.” for “test. After the BAC treatment, the induction of dry eye syndrome was confirmed, and the test substance was administered for 10 days while maintaining the induction of dry eye syndrome.”
# TBUT is the time elapsed between the last blink and the first appearance of fluorescein decomposition, and it is an indicator of tear film stability. […] The measurement was repeated three times to obtain an average value.
# Tear film instability is an important pathological characteristic of DED and the most common indicator of tear quality.
# [5] = tested on: apoptotic cells in cornea and conjunctiva; assay: Apoptotic cells by TUNEL assay, EDE mouse model; conditions: 0.001%, 0.01%, 0.1%
# Procedure: The eyes and appendages from each group were excised, fixed in the modified Davidson's solution, and embedded in paraffin, and the tissue sections were TUNEL-stained. In each section, the degree of apoptosis in the cornea and conjunctiva was measured using ZEN (Zeiss, Oberkochen, Germany) and Image J v1.51j8 (NIH, Bethesda, MD, USA) software programs.
# As DED progresses, the epithelium of the anterior segment of the eye undergoes pathological deformations, including functional damages and structural changes such as abnormal tear sebum secretion and pathogenic cell death. Apoptotic cells that were present in an equal area of the cornea and conjunctiva of one eye per group were quantified by the TUNEL assay.
# [6] = rabbit, 0.1% group, Baseline (before BAC treatment)
# [7] = rabbit, 0.1% group, Day 0 (EDE), before treatment
# [8] = rabbit, 0.2% group, Baseline (before BAC treatment)
# [9] = rabbit, 0.2% group, Day 0 (EDE), before treatment
# [10] = rabbit, 0.4% group, Baseline (before BAC treatment)
# [11] = rabbit, 0.4% group, Day 0 (EDE), before treatment
substance,measurement,setting,value
"NH2-Tyr-Tyr-Phe-Ala-Tyr-His-Pro-Asn-Ile-Pro-Gly-Leu-Tyr-Tyr-Phe-COOH (H-YYFAYHPNIPGLYYF-OH; also: PEGylated, site not given here (mPEG), acetate salt) [(PEG)-BHD1028]",CFS,"rabbit DED model [1]; rabbit DED, 0.1% BID, Day 5",7.17 ± 1.21 score
same,CFS,"rabbit DED model [1]; rabbit DED, 0.1% BID, Day 10",6.67 ± 0.56 score
same,CFS,"rabbit DED model [1]; rabbit DED, 0.2% BID, Day 5",6.83 ± 0.64 score
same,CFS,"rabbit DED model [1]; rabbit DED, 0.2% BID, Day 10",6.17 ± 0.55 score
same,CFS,"rabbit DED model [1]; rabbit DED, 0.4% BID, Day 5",5.67 ± 0.38 score
same,CFS,"rabbit DED model [1]; rabbit DED, 0.4% BID, Day 10",3.83 ± 0.64 score
same,CFS,rabbit DED model [1]; [6],0.00 ± 0.00 score
same,CFS,rabbit DED model [1]; [7],6.67 ± 0.30 score
same,CFS,rabbit DED model [1]; [8],0.00 ± 0.00 score
same,CFS,rabbit DED model [1]; [9],9.17 ± 0.37 score
same,dynamic slope of the CFS score change,"rabbit DED model [1]; rabbit, 0.2%",−0.42
same,CFS,rabbit DED model [1]; [10],0.00 ± 0.00 score
same,CFS,rabbit DED model [1]; [11],8.00 ± 0.62 score
same,mean CFS score lower than that of the 0.05% cyclosporine treated animals,"rabbit DED model [1]; rabbit, 0.4%, Day 10, p=0.0558",approximately 46%
same,dynamic slope of the CFS score change,"rabbit DED model [1]; rabbit, 0.4%",−0.33
same,immune cell counts in the corneal stroma,[2]; 0.1%,399.39±22.22
same,number of immune cells infiltrated into the conjunctiva,[2]; 0.1%,624.94±29.29
same,immune cell counts in the corneal stroma,[2]; 0.2%,349.89±17.18
same,number of immune cells infiltrated into the conjunctiva,[2]; 0.2%,472.41±39.06
same,immune cell counts in the corneal stroma,[2]; 0.4%,305.06±13.88
same,number of immune cells infiltrated into the conjunctiva,[2]; 0.4%,427.22±29.29
same,Tear volume,"[3]; 0.001% eye drops three times a day, Day 5",0.024 ± 0.003 µL
same,Tear volume,"[3]; 0.001% eye drops three times a day, Day 10",0.021 ± 0.002 µL
same,Tear volume,"[3]; 0.01% eye drops three times a day, Day 5",0.026 ± 0.003 µL
same,Tear volume,"[3]; 0.01% eye drops three times a day, Day 10",0.027 ± 0.003 µL
same,Tear volume,"[3]; 0.1% eye drops three times a day, Day 5",0.028 ± 0.002 µL
same,Tear volume,"[3]; 0.1% eye drops three times a day, Day 10",0.032 ± 0.004 µL
same,TBUT,"rabbit DED model [4]; rabbit DED, 0.1% BID, Day 5",10.64 ± 0.99 s
same,TBUT,"rabbit DED model [4]; rabbit DED, 0.1% BID, Day 10",17.88 ± 1.91 s
same,TBUT,"rabbit DED model [4]; rabbit DED, 0.2% BID, Day 5",15.68 ± 1.58 s
same,TBUT,"rabbit DED model [4]; rabbit DED, 0.2% BID, Day 10",17.72 ± 1.74 s
same,TBUT,"rabbit DED model [4]; rabbit DED, 0.4% BID, Day 5",19.88 ± 1.42 s
same,TBUT,"rabbit DED model [4]; rabbit DED, 0.4% BID, Day 10",22.71 ± 1.87 s
same,TBUT,rabbit DED model [4]; [6],49.67 ± 3.17 s
same,TBUT,rabbit DED model [4]; [7],8.50 ± 1.0 s
same,TBUT,rabbit DED model [4]; [8],49.83 ± 2.10 s
same,TBUT,rabbit DED model [4]; [9],8.89 ± 1.34 s
same,TBUT,rabbit DED model [4]; [10],53.00 ± 2.29 s
same,TBUT,rabbit DED model [4]; [11],8.22 ± 1.16 s
same,antiapoptotic effect (TUNEL) in the cornea and conjunctiva,[5],dose-dependent antiapoptotic effect
